Experiment: Inhibition of human RANKL-induced osteoclastogenesis in RANKL cultured mouse bone marrow cells assessed as reduction in RANKL/M-CSF-induced TRAP activity preincubated with RANKL for 1 hr followed by cell addition and subsequent media replenishment every 48 hrs for 4 days

SMILES	IC50
CN(CCN(C)C(=O)c1cn(S(=O)(=O)c2ccccc2)c2ccccc12)C(=O)c1coc2ccccc2c1=O	2860 nM
CN(CCN(C)C(=O)c1cn(S(=O)(=O)c2cccc([N+](=O)[O-])c2)c2ccccc12)C(=O)c1coc2ccccc2c1=O	5070 nM
CN(CCN(C)S(=O)(=O)c1ccccc1)C(=O)c1cn(S(=O)(=O)c2cccc([N+](=O)[O-])c2)c2ccccc12	2700 nM
N#Cc1ccc(S(=O)(=O)N2CCN(C(=O)c3cn(S(=O)(=O)c4cccc([N+](=O)[O-])c4)c4ccccc34)CC2)cc1	5100 nM
CN(CCN(C)Cc1cn(S(=O)(=O)c2ccccc2)c2ccccc12)Cc1coc2ccccc2c1=O	2500 nM
O=C(c1cn(S(=O)(=O)c2cccc([N+](=O)[O-])c2)c2ccccc12)N1CCN(S(=O)(=O)c2cccc([N+](=O)[O-])c2)CC1	6400 nM
CN(CCN(C)S(=O)(=O)c1ccc(C#N)cc1)C(=O)c1cn(S(=O)(=O)c2cccc([N+](=O)[O-])c2)c2ccccc12	2000 nM
CN(CCN(C)S(=O)(=O)c1cccc([N+](=O)[O-])c1)C(=O)c1cn(S(=O)(=O)c2cccc([N+](=O)[O-])c2)c2ccccc12	1900 nM
CN(CCN(C)C(=O)c1cn(-c2cccc([N+](=O)[O-])c2)c2ccccc12)C(=O)c1coc2ccccc2c1=O	1880 nM
Cc1cc2occ(CN(C)CCN(C)Cc3cn(-c4cccc(C(F)(F)F)c4)c4ccccc34)c(=O)c2cc1C	1000 nM
O=C(c1cn(S(=O)(=O)c2cccc([N+](=O)[O-])c2)c2ccccc12)N1CCN(S(=O)(=O)c2ccccc2)CC1	1400 nM
